A value given as a limit tells only on which side of the number the result lay.

protein target, sequence (Q06187 2-659): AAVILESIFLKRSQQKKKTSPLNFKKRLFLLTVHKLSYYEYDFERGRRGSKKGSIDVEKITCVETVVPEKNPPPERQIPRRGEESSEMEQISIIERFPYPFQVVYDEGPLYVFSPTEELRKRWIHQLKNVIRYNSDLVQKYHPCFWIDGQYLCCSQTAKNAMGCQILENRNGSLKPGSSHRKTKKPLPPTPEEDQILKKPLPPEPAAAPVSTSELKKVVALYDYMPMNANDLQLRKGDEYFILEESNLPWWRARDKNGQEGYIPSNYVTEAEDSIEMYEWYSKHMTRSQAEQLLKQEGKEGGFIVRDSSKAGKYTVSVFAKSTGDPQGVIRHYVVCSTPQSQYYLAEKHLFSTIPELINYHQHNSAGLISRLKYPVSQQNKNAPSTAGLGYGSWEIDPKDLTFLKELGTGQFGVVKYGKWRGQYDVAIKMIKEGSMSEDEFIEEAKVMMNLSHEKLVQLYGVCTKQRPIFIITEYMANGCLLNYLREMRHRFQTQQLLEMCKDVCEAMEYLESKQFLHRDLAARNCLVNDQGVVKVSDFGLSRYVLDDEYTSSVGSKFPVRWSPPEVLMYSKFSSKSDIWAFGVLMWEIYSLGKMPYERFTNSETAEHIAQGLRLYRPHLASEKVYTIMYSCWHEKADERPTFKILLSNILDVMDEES
human recombinant Btk, sequence (Q06187 whole entry): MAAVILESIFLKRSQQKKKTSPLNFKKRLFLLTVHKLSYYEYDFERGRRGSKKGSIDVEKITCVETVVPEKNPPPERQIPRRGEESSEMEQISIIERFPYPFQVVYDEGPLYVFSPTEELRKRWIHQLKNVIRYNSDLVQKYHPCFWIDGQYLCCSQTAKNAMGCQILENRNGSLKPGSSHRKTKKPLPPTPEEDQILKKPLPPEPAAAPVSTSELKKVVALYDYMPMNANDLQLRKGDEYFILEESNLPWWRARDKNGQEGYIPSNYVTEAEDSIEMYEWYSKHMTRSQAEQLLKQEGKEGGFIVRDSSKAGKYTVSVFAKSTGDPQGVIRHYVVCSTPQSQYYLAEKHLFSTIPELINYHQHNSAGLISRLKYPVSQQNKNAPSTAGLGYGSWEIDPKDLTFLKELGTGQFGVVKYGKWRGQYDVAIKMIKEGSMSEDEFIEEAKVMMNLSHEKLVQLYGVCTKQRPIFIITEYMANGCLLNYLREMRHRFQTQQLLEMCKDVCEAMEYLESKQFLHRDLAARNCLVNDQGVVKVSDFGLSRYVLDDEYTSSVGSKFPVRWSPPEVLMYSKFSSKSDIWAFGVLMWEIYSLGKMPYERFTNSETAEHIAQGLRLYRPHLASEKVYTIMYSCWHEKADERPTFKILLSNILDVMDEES

The first assay has as its target human recombinant Btk (Homo sapiens, UniProt Q06187). Briefly: Btk enzymatic activity assay (Caliper-based kinase assay). It is filed as biochemical. As to conditions: human recombinant Btk 2 nM, ATP 40 μM, room temperature 3 h, compounds of Cpd Table 1.
Procedure: A Caliper-based kinase assay (Caliper Life Sciences, Hopkinton, Mass.) was used to measure inhibition of Btk kinase activity of a compound of Formula (IA), (I′) or (I). […] The reaction was then terminated with EDTA, final concentration 20 mM and the phosphorylated reaction product was quantified on a Caliper Desktop Profiler (Caliper LabChip 3000). […] This value is presented as the IC50.
Turning to `CC(C)(C)C=C(C#N)C(=O)N1CCCC(n2nc(-c3ccc(Oc4ccccc4)cc3)c3c(N)ncnc32)C1` (stereo not drawn) [Example 7, 2-(3-(4-amino-3-(4-phenoxyphenyl)-1H-pyrazolo[3,4-d]pyrimidin-1-yl)piperidine-1-carbonyl)-4,4-dimethylpent-2-enenitrile], the IC50 was determined as 0.0013 µM.

Consider `NC(=O)C(=CC1CC1)C(=O)N1CCC[C@@H](n2nc(-c3ccc(Oc4ccccc4F)cc3)c3c(N)ncnc32)C1` [Example 32A], for which the IC50 amounted to 0.0017 µM.

For the molecule `CC(Cn1nc(-c2ccc(Oc3ccccc3)cc2F)c2c(N)ncnc21)NC(=O)C(C#N)=CC(C)(C)N` (stereo not drawn) [Example 195], the IC50 turned out to be 0.006 µM.

As for `COc1cc(-c2nn(C3CCCN(C(=O)C(C#N)=CC4CC4)C3)c3ncnc(N)c23)ccc1Oc1ccc(Cl)c(Cl)c1` (stereo not drawn) [compound 4], the IC50 is 0.061 µM.

Turning to `COc1cc(-c2nn(C3CCN(C(=O)C(C#N)=CC4CC4)CC3)c3ncnc(N)c23)ccc1Oc1ccc(Cl)c(Cl)c1` [compound 6], the concentration for half-maximal inhibition (IC50) worked out at 0.365 µM.

`COc1cc(-c2nn(C3CCN(C(=O)C(C#N)=CC(C)(C)C)CC3)c3ncnc(N)c23)ccc1Oc1ccc(Cl)c(Cl)c1` [compound 9]: the concentration for half-maximal inhibition (IC50) is 0.98 µM.

With `N#CC(=CC1CC1)C(=O)NC1CCC(n2nc(-c3ccc(Oc4ccccc4)cc3)c3c(N)ncnc32)CC1` (stereo not drawn) [compound 11], the IC50 came to 0.014 µM.

Staying with this assay, now noted: human recombinant Btk 2 nM, ATP 40 μM, room temperature 3 h, compounds of Cpd Table 2.
Turning to `N#CC(=CC1CC1)C(=O)N1CCCC(n2nc(-c3ccc(NC(=O)c4ccc(C(F)(F)F)cc4)cc3)c3c(N)ncnc32)C1` (stereo not drawn) [Table 2-1, N-(4-(4-amino-1-(1-(2-cyano-3-cyclopropylacryloyl)piperidin-3-yl)-1H-pyrazolo[3,4-d]pyrimidin-3-yl)phenyl)-4-(trifluoromethyl)benzamide], the IC50 was found to be 0.062 µM.

For the molecule `N#CC(=CC1CC1)C(=O)N1CCC(n2nc(-c3ccc(NC(=O)c4ccc(C(F)(F)F)cc4)cc3)c3c(N)ncnc32)CC1` [Table 2-2, N-(4-(4-amino-1-(1-(2-cyano-3-cyclopropylacryloyl)piperidin-4-yl)-1H-pyrazolo[3,4-d]pyrimidin-3-yl)phenyl)-4-(trifluoromethyl)benzamide], the IC50 is over 1 µM.

Consider `CC(C)(C)C=C(C#N)C(=O)N1CCCC(n2nc(-c3ccc(NC(=O)c4ccc(C(F)(F)F)cc4)cc3)c3c(N)ncnc32)C1` (stereo not drawn) [Table 2-3, N-(4-(4-amino-1-(1-(2-cyano-4,4-dimethylpent-2-enoyl)piperidin-3-yl)-1H-pyrazolo[3,4-d]pyrimidin-3-yl)phenyl)-4-(trifluoromethyl)benzamide], for which the IC50 was 0.013 µM.

Regarding `CC(C)(C)C=C(C#N)C(=O)N1CCCC1Cn1nc(-c2ccc(NC(=O)c3ccc(C(F)(F)F)cc3)cc2)c2c(N)ncnc21` (stereo not drawn) [Table 2-5, N-(4-(4-amino-1-((1-(2-cyano-4,4-dimethylpent-2-enoyl)pyrrolidin-2-yl)methyl)-1H-pyrazolo[3,4-d]pyrimidin-3-yl)phenyl)-4-(trifluoromethyl)benzamide], the IC50 came out at 0.18 µM.

Consider `CC(C)(C)C=C(C#N)C(=O)N1CCC(n2nc(-c3ccc(NC(=O)c4ccc(C(F)(F)F)cc4)cc3)c3c(N)ncnc32)CC1` [Table 2-6, N-(4-(4-amino-1-(1-(2-cyano-4,4-dimethylpent-2-enoyl)piperidin-4-yl)-1H-pyrazolo[3,4-d]pyrimidin-3-yl)phenyl)-4-(trifluoromethyl)benzamide], for which the IC50 is over 1 µM.

Regarding `CC(C)(C)C=C(C#N)C(=O)NC1CCC(n2nc(-c3ccc(NC(=O)c4ccc(C(F)(F)F)cc4)cc3)c3c(N)ncnc32)CC1` (stereo not drawn) [Table 2-8, N-(4-(4-amino-1-((1r,4r)-4-(2-cyano-4,4-dimethylpent-2-enamido)cyclohexyl)-1H-pyrazolo[3,4-d]pyrimidin-3-yl)phenyl)-4-(trifluoromethyl)benzamide], the IC50 is over 1 µM.

As to `CC(C)(C)C=C(C#N)C(=O)NC1CCC(n2nc(-c3ccc(NC(=O)c4ccc(C(F)(F)F)cc4)cc3)c3c(N)ncnc32)CC1` (stereo not drawn) [Table 2-10, N-(4-(4-amino-1-((1s,4s)-4-(2-cyano-4,4-dimethylpent-2-enamido)cyclohexyl)-1H-pyrazolo[3,4-d]pyrimidin-3-yl)phenyl)-4-(trifluoromethyl)benzamide], the IC50 is over 1 µM.

The target of another assay is protein target (Homo sapiens, UniProt Q06187). Briefly: Reversibility of binding (compound in solution before and after perturbation of the target, HPLC-MS/MS). Particulars: after 5 M guanidine hydrochloride denaturation and trypsin digestion. As for the experimental part:
The following approach was developed to differentiate compounds that form irreversible bonds with their targets, such as acrylamide compounds, from compound that bind reversibly. […] The reactions were then treated with perturbations including both denaturation with 5 M guanidine hydrochloride and digestion with trypsin, disrupting proper folding of the target. […] The concentration of compound in solution was assessed both preceding and following perturbation using high performance liquid chromatography (HPLC) coupled to tandem mass spectrometry.
As for `N#CC(=CC1CC1)C(=O)N1CCC[C@@H](n2cc(-c3ccc(Oc4ccccc4)cc3)c3c(N)ncnc32)C1` [Example 27, (R)-2-(3-(4-amino-5-(4-phenoxyphenyl)-7H-pyrrolo[2,3-d]pyrimidin-7-yl)piperidine-1-carbonyl)-3-cyclopropylacrylonitrile], the “compound in solution following perturbation of the target” value was “returned to solution”.

Still in this assay, the particulars now being: after denaturation with 5 M guanidine hydrochloride and digestion with trypsin.
Turning to `N#CC(=CC1CC1)C(=O)N1CCC[C@@H](n2cc(-c3ccc(Oc4ccccc4)cc3)c3c(N)ncnc32)C1` [Example 27, (R)-2-(3-(4-amino-5-(4-phenoxyphenyl)-7H-pyrrolo[2,3-d]pyrimidin-7-yl)piperidine-1-carbonyl)-3-cyclopropylacrylonitrile], the “Compound in solution in the denatured or digested state?” value was “yes”.

The same assay, now with this note: before perturbation.
Consider `N#CC(=CC1CC1)C(=O)N1CCC[C@@H](n2cc(-c3ccc(Oc4ccccc4)cc3)c3c(N)ncnc32)C1` [Example 27, (R)-2-(3-(4-amino-5-(4-phenoxyphenyl)-7H-pyrrolo[2,3-d]pyrimidin-7-yl)piperidine-1-carbonyl)-3-cyclopropylacrylonitrile], for which the “depletion of compound from solution in the native (folded) state” value was “depleted”.

The same assay, now with this note: protein target at higher concentration than compound; before perturbation.
On to `N#CC(=CC1CC1)C(=O)N1CCC[C@@H](n2cc(-c3ccc(Oc4ccccc4)cc3)c3c(N)ncnc32)C1` [Example 27, (R)-2-(3-(4-amino-5-(4-phenoxyphenyl)-7H-pyrrolo[2,3-d]pyrimidin-7-yl)piperidine-1-carbonyl)-3-cyclopropylacrylonitrile], for which the “Compound in solution in the native state?” value was “no”.

The values above are taken from patent publication US8962831B2, “Tyrosine kinase inhibitors” (Principia Biopharma Inc., priority 2011, dated 2015).
